System: Arion lusitanicus
Assay: Slug Mucosal Irritation (SMI) assay
Type: in vivo
Experimental: The SMI assay uses slugs (Arion lusitanicus) as the test organism. The body wall of slugs consists of a mucosal surface comprising mucus secreting cells covering a sub epithelial connective tissue. Slugs that are placed on an irritant substance will actively produce mucus as a protective mechanism from noxious agents. Additionally, tissue damage of the slug's surface results in the release of proteins and enzymes. The protein concentration in the collected samples is determined with a protein quantitation kit.
The Slug Mucosal Irritation (SMI) assay was developed to predict the mucosal irritation potency of pharmaceutical formulations and ingredients. Briefly, the assay utilized the terrestrial slug Arion lusitanicus, whose body wall is a mucosal surface composed of different layers. The outer single-layered columnar epithelium contains cells with cilia, cells with microvilli, and mucus-secreting cells that cover the subepithelial connective tissue. […]
The method for testing the irritation potency of the formulations was evaluated by placing the slugs on 100 mg of the sample for 30 minutes daily for 3 successive days, and the amount of mucus produced was measured. […] The total mucus production (MP) percentage was calculated as a percent of the slug's body weight.

For Nonoxynol-9, the “Total MP (%)” value (100 mg, 30 minutes daily, 3 successive days, percent of slug body weight) was 8.2 ± 1.2% and the MIP (mucosal irritation potency class) was “high”.

Reference: patent publication US12083304B2, “Kits for topical, isotonic compositions” (GLYCIOME, LLC, priority 2019, dated 2024)
